Experimental findings from ChEMBL document CHEMBL6078641, “Modulation of aryl hydrocarbon receptor activity by halogenated indoles” (Bioorg Med Chem, 2024) are described below.

Some results are limits rather than exact numbers.

The subject of data set [1] is LS174T. The data set can be described thus: Cytotoxicity against human LS174T cells upto 200 uM incubated for 24 hrs by MTT assay. The format is toxicity, cell-based. For orientation: Tetrazolium assays rely on reduction of a dye to a coloured formazan, in cell work by metabolically active cells.
Data set [2] in a line: Induction of CYP1A1 mRNA expression in human LS180 cells incubated for 4 hrs by chromatin immunoprecipitation assay. The format is functional.
The target in data set [3] is T1, Aryl hydrocarbon receptor (Mus musculus, UniProt P30561).
T1 sequence (P30561 whole entry): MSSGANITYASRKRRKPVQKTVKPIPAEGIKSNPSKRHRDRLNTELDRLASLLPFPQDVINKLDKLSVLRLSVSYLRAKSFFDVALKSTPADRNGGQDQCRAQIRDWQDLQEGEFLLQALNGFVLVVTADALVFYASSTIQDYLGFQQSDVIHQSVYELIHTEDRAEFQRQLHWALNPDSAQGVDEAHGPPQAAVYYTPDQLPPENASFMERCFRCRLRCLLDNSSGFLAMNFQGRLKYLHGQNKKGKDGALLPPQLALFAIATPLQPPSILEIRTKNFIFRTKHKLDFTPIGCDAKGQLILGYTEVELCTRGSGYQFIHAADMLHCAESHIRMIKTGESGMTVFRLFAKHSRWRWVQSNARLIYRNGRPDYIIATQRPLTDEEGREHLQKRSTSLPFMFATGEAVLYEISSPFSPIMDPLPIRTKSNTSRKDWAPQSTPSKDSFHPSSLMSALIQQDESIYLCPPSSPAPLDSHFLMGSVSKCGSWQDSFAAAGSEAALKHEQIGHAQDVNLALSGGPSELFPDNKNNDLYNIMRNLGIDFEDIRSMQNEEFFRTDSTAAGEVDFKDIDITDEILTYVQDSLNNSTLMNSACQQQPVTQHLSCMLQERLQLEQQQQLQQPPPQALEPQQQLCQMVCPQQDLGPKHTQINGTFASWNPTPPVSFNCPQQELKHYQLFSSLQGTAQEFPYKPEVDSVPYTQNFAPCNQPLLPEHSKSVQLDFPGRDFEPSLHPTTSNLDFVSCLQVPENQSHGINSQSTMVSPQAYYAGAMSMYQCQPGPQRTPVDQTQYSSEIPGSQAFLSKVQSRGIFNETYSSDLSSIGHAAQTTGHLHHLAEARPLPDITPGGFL
The data set can be described thus: Displacement of [3H]-TCDD from AhR in mouse Hepa1c1c7 cell cytosolic lysate at 50 uM by competitive binding assay relative to control. The format is subcellular, Cytosol. Particulars: Hepa-1c1c7, mouse, read-out: Activity. For orientation: Loss of bound radioactivity is the signal in a displacement assay; it reports binding, not function.

Data set [4] addresses T1, Aryl hydrocarbon receptor. Put plainly: Displacement of [3H]-TCDD from AhR in mouse Hepa1c1c7 cell cytosolic lysate by competitive binding assay. The following applies: for Activity: mouse, cytosol, dose 0.1-100 µM. The format is subcellular, Cytosol.
Data set [5] concerns the target T2, Aryl hydrocarbon receptor (Homo sapiens, UniProt P35869).
T2 sequence (P35869 whole entry): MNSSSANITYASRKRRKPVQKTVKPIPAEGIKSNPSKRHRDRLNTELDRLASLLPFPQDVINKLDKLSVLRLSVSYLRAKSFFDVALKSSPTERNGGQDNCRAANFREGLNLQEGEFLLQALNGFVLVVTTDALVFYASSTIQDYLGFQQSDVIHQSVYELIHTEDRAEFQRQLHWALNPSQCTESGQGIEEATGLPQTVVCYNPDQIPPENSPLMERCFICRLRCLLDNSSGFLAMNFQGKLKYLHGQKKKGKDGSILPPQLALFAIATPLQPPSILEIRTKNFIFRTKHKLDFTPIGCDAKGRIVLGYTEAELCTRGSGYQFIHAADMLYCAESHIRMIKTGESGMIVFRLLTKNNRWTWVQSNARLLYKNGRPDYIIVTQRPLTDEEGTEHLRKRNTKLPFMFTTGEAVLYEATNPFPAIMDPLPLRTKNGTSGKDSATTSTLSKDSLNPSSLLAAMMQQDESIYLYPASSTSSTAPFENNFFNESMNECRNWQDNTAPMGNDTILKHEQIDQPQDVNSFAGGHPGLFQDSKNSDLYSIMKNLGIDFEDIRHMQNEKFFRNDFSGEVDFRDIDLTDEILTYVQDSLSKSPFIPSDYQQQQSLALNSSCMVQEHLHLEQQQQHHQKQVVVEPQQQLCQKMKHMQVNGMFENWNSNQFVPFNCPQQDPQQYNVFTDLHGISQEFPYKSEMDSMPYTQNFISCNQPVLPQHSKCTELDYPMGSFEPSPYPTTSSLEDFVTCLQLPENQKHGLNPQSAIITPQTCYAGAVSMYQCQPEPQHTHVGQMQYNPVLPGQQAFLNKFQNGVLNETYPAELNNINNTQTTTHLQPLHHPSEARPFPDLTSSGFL
The data set can be described thus: Agonist activity at Luc-fused AhR (unknown origin) transcriptional activity expressed in human LS174T cells incubated for 4 hrs by luciferase reporter gene assay. The format is cell-based.

The target of data set [6] is T2, Aryl hydrocarbon receptor. The data set can be described thus: Agonist activity at Luc-fused AhR (unknown origin) transcriptional activity expressed in human LS174T cells at 100 uM incubated for 4 hrs by luciferase reporter gene assay relative to control. The format is cell-based. Particulars: read-out: Activity. (A reporter such as luciferase makes a cellular process visible.)

For data set [7], the target named is T2, Aryl hydrocarbon receptor. The data set can be described thus: Agonist activity at Luc-fused AhR (unknown origin) transcriptional activity expressed in human LS174T cells incubated for 24 hrs by luciferase reporter gene assay. The data set is classed as cell-based.
A short description of data set [8]: Induction of CYP1A1 mRNA expression in human LS180 cells at 25 uM incubated for 4 hrs by chromatin immunoprecipitation assay relative to control. The format is functional.
In data set [9] the test system is LS174T. The data set can be described thus: Cytotoxicity against human LS174T cells assessed as decrease in cell viability at 200 uM incubated for 24 hrs by MTT assay relative to control. The format is toxicity, cell-based.
Data set [10] can be described thus: Induction of CYP1A1 mRNA expression in human LS180 cells assessed as fold increase at 100 uM incubated for 24 hrs by qRT-PCR analysis relative to control. The data set is classed as functional.
Data set [11] in a line: Induction of CYP1A1 mRNA expression in human LS180 cells assessed as fold increase at 100 uM incubated for 8 hrs by qRT-PCR analysis relative to control. The format is functional.

Broadly, the EC80 is the concentration at which the effect reaches the 80% level. High values mean weaker potency, low ones greater potency. In general, IC50 refers to the point on the concentration scale where inhibition reaches its midpoint. A lower IC50 goes with higher potency. As a reminder, the Ki is a measure of affinity in units of concentration, obtained from inhibition or displacement. A low value points to tighter binding. Broadly, the EC50 is the concentration at which the effect is half-maximal.

`Fc1ccc2cc[nH]c2c1`: in data set [1], the Activity result is “Non-toxic”.
The same measure, in the same setting: next, `Clc1cccc2cc[nH]c12`: “Non-toxic”.
`O=C1Cc2ccc(Cl)cc2N1` came in with an EC80 in data set [2] of 0.3 µM. The Activity result in data set [1] is “Non-toxic”. Also, in data set [3], the inhibition at 50 µM was 50%. In addition, in data set [4], the IC50 came to 7.4 µM, the Ki came out at 3.7 µM and the Activity result is given as “Dose-dependent-effect”.
Turning to `Brc1cccc2[nH]ccc12`, the Activity entry in [1] is “Non-toxic”.
The same measure, in the same setting: next, `O=C1Cc2cccc(Cl)c2N1`: “Non-toxic”.
Still for that read-out and setting: next, `O=C1Cc2cc(Cl)ccc2N1`: “Non-toxic”.
In [2], `O=C1Cc2ccc(Br)cc2N1` registered an EC80 of 33.1 µM. For the same compound, the EC50 is 2.5 µM in [5] and 18.6 µM in [7]. Further, the Activity result in [1] is “Non-toxic”; in [4] it was “Dose-dependent-effect”. Besides, in data set [6], the activity at 100 µM was 68%. In data set [3], the inhibition at 50 µM is 10%. The Efficacy in data set [8] came out at 12%. Also, in [4], the IC50 was above 100 µM.
Turning to `Brc1ccc2[nH]ccc2c1`, the values for the EC50 in data set [5] and in data set [7] were 6.7 µM and 58.1 µM, respectively. For the same compound, the Activity result in data set [1] is on record as “Non-toxic”. The activity at 100 µM in data set [6] was found to be 108%.
Regarding `Brc1ccc2cc[nH]c2c1`, in data set [2], it took 4.1 µM to reach the 80% level (EC80). Besides, the Activity result in data set [1] was “Non-toxic”. Besides, in [4], the IC50 was determined as 43.4 µM, the Ki was 21.7 µM and the Activity entry is “Dose-dependent-effect”.
Regarding `Clc1ccc2cc[nH]c2c1`, the EC50 is 4.3 µM in data set [5] and 80.6 µM in [7]. Also, the Activity result in [1] is “Non-toxic”. Also, the activity at 100 µM in [6] came out at 92%.
In the case of `Clc1ccc2[nH]ccc2c1`, the figures for the Activity in [9] and in [1] were 50% and “Non-toxic”, respectively. Besides, the results for the EC50 in [5] and in data set [7] were 24.1 µM and 77.2 µM, respectively. In addition, in data set [6], the activity at 100 µM stood at 30%.
On to `Fc1ccc2[nH]ccc2c1`, for which, in data set [1], the Activity result is “Non-toxic”.
Regarding `Brc1cccc2cc[nH]c12`, it took 5.5 µM to reach the 80% level in [2] (EC80). Further, the Activity result in data set [1] was “Non-toxic”. For the same compound, in [3], the inhibition at 50 µM is above 70%.
In the case of `Fc1cccc2[nH]ccc12`, the EC80 in data set [2] was determined as 5.1 µM. Moreover, the Activity result in data set [1] is “Non-toxic”. For the same compound, in [3], the inhibition at 50 µM is above 70%. For the same compound, in [4], the IC50 came to 18.2 µM, the inhibition constant (Ki) was found to be 9.1 µM and the Activity result is given as “Dose-dependent-effect”.
Turning to `O=C1Cc2cc(Br)ccc2N1`, in data set [2], the EC80 amounted to 4.7 µM. Also, the Activity entry in data set [1] is on record as “Non-toxic”. Also, the inhibition at 50 µM in [3] turned out to be 20%. Besides, in data set [4], the half-inhibitory concentration (IC50) was above 100 µM and the Activity entry is “Dose-dependent-effect”.
On to `Fc1cccc2cc[nH]c12`, for which, in data set [2], the EC80 came to 3.8 µM. In addition, in [1], the Activity entry is reported as “Non-toxic”. The inhibition at 50 µM in data set [3] was above 70%. In addition, in data set [4], the IC50 was determined as 22.1 µM, the inhibition constant Ki worked out at 11 µM and the Activity entry is listed as “Dose-dependent-effect”.
Turning to `O=C1Cc2cc(F)ccc2N1`, the Activity entry in data set [1] is reported as “Non-toxic”.
Regarding `Clc1cccc2[nH]ccc12`, the figures for the Activity in data set [9] and in data set [1] were 50% and “Non-toxic”, respectively. For the same compound, the response in data set [5] was half-maximal at 7.9 µM (EC50). In addition, the activity at 100 µM in [6] turned out to be 15%.
As to `Clc1cc2c(cc1Cl)Oc1cc(Cl)c(Cl)cc1O2` [2,3,7,8-TETRACHLORODIBENZO-P-DIOXIN], the “fold change (FC)” value in [10] is around 92; in data set [11] it was around 26.
`c1ccc2[nH]ccc2c1` [INDOLE]: the EC50 in [5] came to 11.1 µM; in [7] it was 43.1 µM. Moreover, the Activity entry in [1] is given as “Non-toxic”. In data set [6], the activity at 100 µM was 94%.
For `O=C1Cc2ccccc2N1` [OXINDOLE], the EC50 in data set [5] was found to be 5.2 µM; in data set [7] it was 80.9 µM. Moreover, the Activity entry in [1] was “Non-toxic”. In [6], the activity at 100 µM is 86%.
